Laboratory results reported in ChEMBL document CHEMBL1153503, “Design and synthesis of novel nitrogen-containing polyhydroxylated aromatics as HIV-1 integrase inhibitors from caffeic acid phenethyl ester” (Bioorg Med Chem Lett, 2009).

Key:
[1] = biological target: T1, Human immunodeficiency virus type 1 integrase (Human immunodeficiency virus 1, UniProt Q7ZJM1); assay: Inhibition of HIV1 integrase assessed as inhibition of strand transfer activity by 32P-labelled assay
[2] = biological target: T1, Human immunodeficiency virus type 1 integrase
Description: Inhibition of HIV1 integrase assessed as inhibition of 3'-end processing by 32P-labelled assay

[3] = biological target: Human immunodeficiency virus type 1 integrase (Human immunodeficiency virus 1) (UniProt Q7ZJM1); assay: Selectivity index, ratio of IC50 for HIV1 integrase 3'-end processing to IC50 for HIV1 integrase strand transfer activity
Human immunodeficiency virus type 1 integrase (Human immunodeficiency virus 1), sequence (Q7ZJM1 as listed by the source): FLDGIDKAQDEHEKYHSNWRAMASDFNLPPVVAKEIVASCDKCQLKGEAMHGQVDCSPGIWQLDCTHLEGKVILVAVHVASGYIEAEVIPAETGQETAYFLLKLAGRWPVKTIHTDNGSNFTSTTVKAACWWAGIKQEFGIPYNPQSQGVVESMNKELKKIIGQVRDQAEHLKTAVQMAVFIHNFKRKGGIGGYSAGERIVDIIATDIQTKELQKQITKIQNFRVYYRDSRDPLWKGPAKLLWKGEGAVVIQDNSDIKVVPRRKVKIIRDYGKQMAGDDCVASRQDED

T1 sequence (Q7ZJM1 whole entry): as the sequence (Q7ZJM1 as listed by the source) above

Row | Structure (SMILES) | IC50 [1] [µM] | IC50 [2] [µM] | Ratio IC50 [3]
1 | O=C(Nc1ccc(S(=O)(=O)NCc2ccc(F)cc2)cc1)c1cc(O)c(O)c(O)c1 | 2 | 7 | –
2 | CC(=O)Oc1cc(C(=O)Nc2ccc(S(=O)(=O)Nc3ccccc3C)cc2)cc(OC(C)=O)c1OC(C)=O | 1.6 | > 10 | –
3 | Cc1ccc(NS(=O)(=O)c2ccc(NC(=O)c3cc(O)c(O)c(O)c3)cc2)cc1C | 8 | 8 | –
4 | O=C(Nc1ccc(S(=O)(=O)NCc2ccc(Cl)cc2)cc1)c1cc(O)c(O)c(O)c1 | 2 | 5 | –
5 | CC(=O)Oc1cc(C(=O)Nc2ccc(S(=O)(=O)Nc3ccccc3)cc2)cc(OC(C)=O)c1OC(C)=O | 1.6 | 8 | –
6 | NS(=O)(=O)c1ccc(NC(=O)c2cc(O)c(O)c(O)c2)cc1 | 2 | 22 | 11
7 | Cc1ccccc1NS(=O)(=O)c1ccc(NC(=O)c2cc(O)c(O)c(O)c2)cc1 | 2 | 7 | –
8 | O=C(/C=C/c1ccc(O)c(O)c1)Nc1ccc(S(=O)(=O)Nc2ccccc2)cc1 | 12 | 16 | –
9 | O=C(Nc1ccc(S(=O)(=O)Nc2ccc(F)c(F)c2F)cc1)c1cc(O)c(O)c(O)c1 | 3 | 7 | –
10 | O=C(Nc1ccc(S(=O)(=O)Nc2ccccc2)cc1)c1ccc(O)c(O)c1 | 50 | 100 | –
11 | Cc1cc(C)cc(NS(=O)(=O)c2ccc(NC(=O)c3cc(O)c(O)c(O)c3)cc2)c1 | 2.5 | 8 | –

The remaining lines, values ahead:

Row | IC50 [1] [µM] | IC50 [2] [µM] | Ratio IC50 [3] | Structure (SMILES)
12 | 1.5 | 4 | – | O=C(Nc1ccc(S(=O)(=O)Nc2ccc(F)c(F)c2)cc1)c1cc(O)c(O)c(O)c1
13 | 0.7 | 2 | – | O=C(Nc1ccc(S(=O)(=O)Nc2cccc(Br)c2)cc1)c1cc(O)c(O)c(O)c1
14 | 4.5 | 5 | – | COc1ccc(NS(=O)(=O)c2ccc(NC(=O)c3cc(O)c(O)c(O)c3)cc2)cc1
15 | 1.3 | 6 | – | CCOc1ccc(NS(=O)(=O)c2ccc(NC(=O)c3cc(O)c(O)c(O)c3)cc2)cc1
16 | 1.5 | 7 | – | O=C(Nc1ccc(S(=O)(=O)Nc2ccccc2)cc1)c1cc(O)c(O)c(O)c1
17 | 2.5 | 3 | – | CCCCc1ccc(NS(=O)(=O)c2ccc(NC(=O)c3cc(O)c(O)c(O)c3)cc2)cc1
18 | 0.9 | 7 | – | O=C(Nc1ccc(S(=O)(=O)Nc2ccc(F)cc2)cc1)c1cc(O)c(O)c(O)c1
19 | 3 | 4 | – | O=C(Nc1ccc(S(=O)(=O)Nc2ccc([N+](=O)[O-])cc2)cc1)c1cc(O)c(O)c(O)c1
20 | 1.7 | 5 | – | O=C(Nc1ccc(S(=O)(=O)Nc2ccc(Cl)c(Cl)c2)cc1)c1cc(O)c(O)c(O)c1
21 | 2 | 6 | – | O=C(Nc1ccc(S(=O)(=O)Nc2ccc(Cl)cc2)cc1)c1cc(O)c(O)c(O)c1
22 | 0.7 | 3 | – | O=C(Nc1ccc(S(=O)(=O)Nc2ccc(Br)cc2)cc1)c1cc(O)c(O)c(O)c1
